# In patent publication US20220257559A1, “INTESTINAL MICROBIOME-IMPROVING COMPOSITION INCLUDING ELLAGIC ACID AS ACTIVE INGREDIENT” (Andong National University Industry-Academic Cooperation …, priority 2021, published 2022):
# Columns and labels:
# Type in all cases: in vivo
# intestinal cells = assay: apoptosis of intestinal cells in alcohol-exposed mice; settings: EA pretreatment group, alcohol-induced; FIG. 11
# Description: (§1) All animal testing procedures were performed in accordance with Andong National University's small animal testing guidelines, and were approved by the Andong National University Animal Care and Use Committee. All mice were housed where food and water were provided autonomously, and lighting was controlled (12-hour light/dark cycle). The ellagic acid was orally administered to 6-week-old female C57BL/6J mice at a daily dose of 60 mg/Kg as a physiologically and clinically relevant dose, and 200 mg/Kg silymarin was administered as a positive control. Water was orally administered to control mice. After the administration of ellagic acid for 14 days, alcohol or dextrose (control) was orally administered to some of the mice at a dose of 5 g/Kg, three times at 12-hour intervals. The mice were sacrificied 1 hour after the last administration.
# Small intestine and liver specimens were fixed overnight in 10% buffered formalin and embedded in paraffin. […]
# (§2) Changes in the expression of intestinal tight junction (TJ) and anchoring junction (AJ) proteins are observed in mouse models with alcohol-induced intestinal leak. To evaluate whether ellagic acid (EA) prevents alcohol-induced intestinal leakage, the expression levels of intestinal TJ and AJ proteins after the ellagic acid administration were measured.
# [1] = blood alcohol concentration (BAC) in alcohol-exposed mice; settings: EA-pretreated group; FIG. 16
# Description: as §1
# (§3) Levels of plasma ROS were visualized with 2′,7′-dichlorofluorescein diacetate (DCFH-DA) purchased from Thermo Fisher Scientific. After the DCFH-DA was incubated at 37° C. for 20 minutes, DCFH-DA fluorescence was measured. Plasma alcohol levels were measured using a commercially available kit manufactured by BioVision.
# (§4) To evaluate the effect of ellagic acid (EA) on hepatic fat accumulation, and plasma ALT and hepatic triglyceride levels, liver tissues taken from mouse models were histologically analyzed through H/E staining and Oil Red O staining.
# ZO-1 and β-catenin = assay: intestinal tight junction (TJ) and anchoring junction (AJ) protein expression in alcohol-exposed mice; settings: EA-pretreated group within the alcohol-exposed group; FIG. 10
# Description: as §1, with “After the administration of ellagic acid for 14 days, alcohol or dextrose (control) was orally administered to some of the mice at a dose of 5 g/Kg, three times at 12-hour intervals. The mice were sacrificied 1 hour after the last administration.” left out
# Portions of liver tissue and small intestine from each mouse were homogenized with RIPA buffer. […] Relative protein images were determined using the HRP-binding secondary antibody and an ECL substrate (Thermo Fishers). The intensity of immune response bands was quantified by density using ImageJ software (National Institutes of Health).
# as §2
# [2] = test system: fat accumulation in the liver; assay: liver histology (H/E and Oil Red O staining) in alcohol-exposed mice; settings: EA-pretreated group vs alcohol-exposed group, FIGS. 12 and 13
# Description: as §1
# (§5) Portions of the largest liver lobes or small intestines from the mice pretreated with ellagic acid and from the controls were fixed in neutral formalin. […] Plasma ALT levels of each mouse were measured using a standard endpoint colorimetric assay kit (Bio Vision, Milpitas, Calif.).
# as §4
# plasma ROS = plasma ROS level (DCFH-DA) in alcohol-exposed mice; settings: FIG. 18
# Description: as §1, §3
# CYP2E1 generates reactive oxygen species (ROS) in alcoholic and nonalcoholic liver disease.
# cecal microbiota = cecal microbiota 16S sequencing, alcohol exposure and EA pretreatment in mice
# Description: All animal testing procedures were performed in accordance with Andong National University's small animal testing guidelines, and were approved by the Andong National University Animal Care and Use Committee. All mice were housed where food and water were provided autonomously, and lighting was controlled (12-hour light/dark cycle). The ellagic acid was orally administered to 6-week-old female C57BL/6J mice at a daily dose of 60 mg/Kg as a physiologically and clinically relevant dose, and 200 mg/Kg silymarin was administered as a positive control. Water was orally administered to control mice. After the administration of ellagic acid for 14 days, alcohol or dextrose (control) was orally administered to some of the mice at a dose of 5 g/Kg, three times at 12-hour intervals. The mice were […] 1 hour after the last administration. Fecal samples were aseptically collected from the cecum of each mouse and frozen at -80° C. DNA was extracted using the Mag-Bind Universal Pathogen DNA Kit (Chunlab, Seoul, South Korea) according to the manufacturer's instructions. DNA sequencing of bacterial 16S rRNA in each fecal sample was performed at Chunlab (https://www.chunlab.com/). Intestinal microbiome and bacterial products have been associated with liver diseases (ALD). To evaluate the effect of ellagic acid (EA) on the intestinal microbial distribution in an alcoholic liver disease model, the cecal microbiota according to alcohol exposure and EA pretreatment in mice was evaluated according to the experimental design of FIG. 1. […] However, in the case of the alcohol exposure group, Verrucomicrobia phylum increased whereas Firmicutes phylum decreased.
# TNF-α = assay: intestinal TNF-α level (ELISA) in alcohol-exposed mice; settings: EA pretreatment vs alcohol-exposed group; EA 60 mg/Kg daily oral 14 days; FIG. 8
# Description: as §1
# Liver solutions were analyzed using an ELISA kit for TNF-α, manufactured by Abcam (Cambridge, United Kingdom), according to the manufacturer's instructions. To use equal amounts of protein for the ELISA, protein concentration was measured with BCA reagent manufactured by BioRad (Hercules, Calif.). […]
# (§6) Intestinal microbial products can be stimulated by intestinal leak and endotoxins. Plasma endotoxin and intestinal TNF-α levels were measured to determine whether ellagic acid (EA)-mediated prophylaxis occurred at altered levels of microbial composition.
# [3] = test system: CYP2E1, iNOS and 3-NT proteins in the liver; assay: hepatic CYP2E1 expression and activity and oxidative stress marker proteins in alcohol-exposed mice
# Description: CYP2E1 Activity Analysis Liver solutions were each analyzed with an ELISA kit for CYP2E1, manufactured by Claud-clone corporation (Houston, Tex.), according to the manufacturer's instructions.
# Portions of liver tissue and small intestine from each mouse were homogenized with RIPA buffer. Equally pooled protein in an amount of 50 ug collected from different mouse samples within the same group were separated by SDS/PAGE and transferred to nitrocellulose membranes. These membranes were incubated with polyclonal antibodies against CYP2E1 (1:5,000 dilution; Abcam), p-JNK (1:1,000 dilution; Cell Signaling), 3-NT (1:5,000 dilution; Abcam), iNOS (1:5,000 dilution; Abcam), cleaved caspase-3 (1:1,000 dilution; Cell Signaling), ZO-1 (1:5,000 dilution; Abcam), and claudin-1 (1:1,000 dilution; Thermo Fisher). Each mouse monoclonal antibody against JNK (1:1,000 dilution; Cell Signaling), Bax (1:1,000 dilution; Santa Cruz Biotechnology), or +-actin (1:10,000 dilution; Santa Cruz Biotechnology) was used to detect specific antigenic targets. After washing the nitrocellulose membranes three times with PBS at 10-minute intervals, horseradish peroxidase (HRP)-conjugated anti-rabbit or anti-mouse IgG (manufactured by Santa Cruz Biotechnology) was diluted at a ratio of 1:5,000 and used as a secondary antibody. Relative protein images were determined using the HRP-binding secondary antibody and an ECL substrate (Thermo Fishers). The intensity of immune response bands was quantified by density using ImageJ software (National Institutes of Health).
# To evaluate the effect of ellagic acid (EA) on hepatic oxidative stress, the expression and activity levels of CYP2E1 proteins were measured.
# [4] = test system: CYP2E1, iNOS, and 3-NT proteins in the intestine; assay: intestinal oxidative stress marker proteins (immunoblot) in alcohol-exposed mice; settings: EA-pretreated group vs alcohol-exposed group; FIG. 9
# Description: Portions of liver tissue and small intestine from each mouse were homogenized with RIPA buffer. Equally pooled protein in an amount of 50 ug collected from different mouse samples within the same group were separated by SDS/PAGE and transferred to nitrocellulose membranes. These membranes were incubated with polyclonal antibodies against CYP2E1 (1:5,000 dilution; Abcam), p-JNK (1:1,000 dilution; Cell Signaling), 3-NT (1:5,000 dilution; Abcam), iNOS (1:5,000 dilution; Abcam), cleaved caspase-3 (1:1,000 dilution; Cell Signaling), ZO-1 (1:5,000 dilution; Abcam), and claudin-1 (1:1,000 dilution; Thermo Fisher). Each mouse monoclonal antibody against JNK (1:1,000 dilution; Cell Signaling), Bax (1:1,000 dilution; Santa Cruz Biotechnology), or +-actin (1:10,000 dilution; Santa Cruz Biotechnology) was used to detect specific antigenic targets. […] Relative protein images were determined using the HRP-binding secondary antibody and an ECL substrate (Thermo Fishers). The intensity of immune response bands was quantified by density using ImageJ software (National Institutes of Health).
# To evaluate the effect of ellagic acid on intestinal oxidative stress, the expression levels of CYP2E1, iNOS, and 3-NT proteins were measured.
# [5] = test system: hepatic triglyceride (TG); assay: hepatic triglyceride (TG) level in alcohol-exposed mice; settings: EA-pretreated group vs alcohol-exposed group; FIG. 14
# Description: as §1
# The level of triglyceride (TG) in the liver was measured using a commercially available kit manufactured by Asan Co., Ltd. (Gimpo, South Korea).
# as §4
# [6] = test system: p-JNK, Bax, cleaved caspase-3 in the liver; assay: liver apoptosis markers (Western blot, cleaved caspase-3 staining, TUNEL) in alcohol-exposed mice
# Description: as §1
# Portions of liver tissue and small intestine from each mouse were homogenized with RIPA buffer. Equally pooled protein in an amount of 50 ug collected from different mouse samples within the same group were separated by SDS/PAGE and transferred to nitrocellulose membranes. These membranes were incubated with polyclonal antibodies against CYP2E1 (1:5,000 dilution; Abcam), p-JNK (1:1,000 dilution; Cell Signaling), 3-NT (1:5,000 dilution; Abcam), iNOS (1:5,000 dilution; Abcam), cleaved caspase-3 (1:1,000 dilution; Cell Signaling), ZO-1 (1:5,000 dilution; Abcam), and claudin-1 (1:1,000 dilution; Thermo Fisher). Each mouse monoclonal antibody against JNK (1:1,000 dilution; Cell Signaling), Bax (1:1,000 dilution; Santa Cruz Biotechnology), or […] (1:10,000 dilution; Santa Cruz Biotechnology) was used to detect specific antigenic targets. […] Relative protein images were determined using the HRP-binding secondary antibody and an ECL substrate (Thermo Fishers). The intensity of immune response bands was quantified by density using ImageJ software (National Institutes of Health). […]
# plasma endotoxin = plasma endotoxin level (LAL chromogenic kit) in alcohol-exposed mice; settings: EA-pretreated group vs alcohol-exposed group; EA 60 mg/Kg daily oral 14 days; FIG. 7
# Description: as §1
# Plasma endotoxin levels were measured using a commercial endpoint LAL Chromogenic Endotoxin Quantitation Kit manufactured by Thermo Fisher Scientific (Waltham, Mass.) and having a concentration range of 0.015 to 1.2 EU/mL.
# as §6
# plasma ALT = plasma ALT level in alcohol-exposed mice; settings: EA-pretreated group vs alcohol-exposed group; FIG. 15
# Description: as §1, §5, §4
# [7] = summary statement, alcohol intake
# [8] = EA-pretreated group vs alcohol-exposed group, FIGS. 17 and 19
# [9] = EA-pretreated group vs alcohol-exposed mice, FIG. 19
# [10] = EA-pretreated group vs alcohol-exposed group, Western blot, FIG. 20
smiles,measurement,setting,value
O=c1oc2c(O)c(O)cc3c(=O)oc4c(O)c(O)cc1c4c23 [ellagic acid],apoptosis of intestinal cells,intestinal cells,decrease
same,increase in blood alcohol concentration (BAC) caused by alcohol intake,[1],suppressed
same,level of intestinal ZO-1,ZO-1 and β-catenin,recovery
same,level of intestinal β-catenin,ZO-1 and β-catenin,recovery
same,fat accumulation in the liver,[2],decreased
same,increase in the level of plasma ROS attributable to alcohol intake,plasma ROS,suppressed
same,gene of the genus Bacteroides,"cecal microbiota; EA-pretreated mice vs alcohol-exposed group, EA 60 mg/Kg daily oral 14 days, alcohol 5 g/Kg three times, FIG. 4",decreased
same,gene level of E. coli,"cecal microbiota; EA-pretreated mice vs alcohol-exposed group, EA 60 mg/Kg daily oral 14 days, alcohol 5 g/Kg three times, FIG. 5",decreased to a level similar to that of the control group
same,change in intestinal microbial distribution at the phylum level,"cecal microbiota; control group and EA pretreatment group, EA 60 mg/Kg daily oral 14 days, female C57BL/6J mice, FIGS. 2 and 3",no significant change
same,growth of Bacteroidetes (harmful bacteria) attributable to alcohol intake,cecal microbiota; [7],inhibits the growth
same,growth of Firmicutes (beneficial bacteria),cecal microbiota; [7],increases the growth
same,growth of Verrucomicrobia (harmful bacteria) attributable to alcohol intake,cecal microbiota; [7],inhibits the growth
same,alcohol-induced increase in intestinal TNF-α level,TNF-α,suppressed
same,activity level of CYP2E1 proteins in the liver,[3]; [8],decreased
same,expression level of CYP2E1 proteins in the liver,[3]; [8],decreased
same,hepatic 3-NT proteins,[3]; [9],decreased
same,hepatic inducible nitric oxide synthase (iNOS) protein,[3]; [9],decreased
same,level of 3-NT proteins in the intestine,[4],decreased
same,level of CYP2E1 protein in the intestine,[4],decreased
same,level of iNOS protein in the intestine,[4],decreased
same,hepatic triglyceride (TG) level,[5],decreased
same,Bax (apoptosis marker protein) in the liver,[6]; [10],decreased
same,p-JNK (apoptosis marker protein) in the liver,[6]; [10],decreased
same,apoptosis marker proteins by cleaved caspase-3 staining and TUNEL analysis in the liver,"[6]; EA-pretreated group vs mice exposed to alcohol, FIGS. 21 and 22",decreased
same,alcohol-induced increase in plasma endotoxin concentration,plasma endotoxin,suppressed
same,plasma ALT level,plasma ALT,decreased
